Experimental data taken from patent US20080063668A1, “Nitroimidazole and terconazole composition and method” (priority 2006, published 2008).

What was measured:
Atopobium vaginae BAA-55 = experiment: Inhibition of bacteria growth, drug dilution tubes, anaerobic; format: cell-based; design: key to growth: (+) for growth; (−) for no growth; (±) for suboptimal growth after an initial observation of growth
Procedure: (§1) Serial dilutions of tinidazole and terconazole were prepared by adding measured amounts of each substance to water (both individually and in combination). Seven bacterial organisms that are common pathogens in bacterial vaginosis were grown anaerobically in the medium as listed in Table 4 under a N2/H2/CO2 (85:5:10) head space atmosphere. [table] These cultures were diluted to a 0.5 McFarland standard prior to inoculation of drug dilution tubes. One (1) mL of the 0.5 McFarland preparation was inoculated to an anaerobically prepared test tube containing 0.8 mL of Difco anaerobic medium (DAMM) and 0.2 mL of appropriate diluted antimicrobial or antimicrobial combination for a total of 2 mL. The inoculated tubes were then incubated at 37° C. and monitored daily for growth. Growth was scored with a (+) for growth, (−) for no growth, and (±) for suboptimal growth after an initial observation of growth. Tinidazole is abbreviated as TNZ and terconazole is abbreviated as TER in Tables 5 through 11.

[1] = test system: Gardnerella vaginalis ATCC 14019; experiment: as above; format: cell-based; design: key to growth: (+) for growth; (−) for no growth; (±) for suboptimal growth after an initial observation of growth
Procedure: as §1

[2] = test system: Mobiluncus mulieris ATCC 35243; experiment: as above; format: cell-based; design: key to growth: (+) for growth; (−) for no growth; (±) for suboptimal growth after an initial observation of growth
Procedure: as §1

[3] = neutral pH; cited from earlier work

CCS(=O)(=O)CCn1c([N+](=O)[O-])cnc1C [TNZ, 1-[2-(ethylsulfonyl)ethyl]-2-methyl-5-nitroimidazole]
growth (Atopobium vaginae BAA-55; TNZ 2 μg/ml, DAY 1): (+)
growth (Atopobium vaginae BAA-55; TNZ 2 μg/ml, DAY 2): (+)
growth (Atopobium vaginae BAA-55; TNZ 2 μg/ml, DAY 3): (+)
growth (Atopobium vaginae BAA-55; TNZ 2 μg/ml, DAY 4): (+)
growth (Atopobium vaginae BAA-55; TNZ 2 μg/ml, DAY 5): (+)
growth (Atopobium vaginae BAA-55; TNZ 3.9 μg/ml, DAY 1): (+)
growth (Atopobium vaginae BAA-55; TNZ 3.9 μg/ml, DAY 2): (+)
growth (Atopobium vaginae BAA-55; TNZ 3.9 μg/ml, DAY 3): (+)
growth (Atopobium vaginae BAA-55; TNZ 3.9 μg/ml, DAY 4): (+)
growth (Atopobium vaginae BAA-55; TNZ 3.9 μg/ml, DAY 5): (+)
growth (Atopobium vaginae BAA-55; TNZ 7.8 μg/ml, DAY 1): (+)
growth (Atopobium vaginae BAA-55; TNZ 7.8 μg/ml, DAY 2): (+)
growth (Atopobium vaginae BAA-55; TNZ 7.8 μg/ml, DAY 3): (+)
growth (Atopobium vaginae BAA-55; TNZ 7.8 μg/ml, DAY 4): (+)
growth (Atopobium vaginae BAA-55; TNZ 7.8 μg/ml, DAY 5): (+)
growth (Atopobium vaginae BAA-55; TNZ 15.6 μg/ml, DAY 1): (−)
growth (Atopobium vaginae BAA-55; TNZ 15.6 μg/ml, DAY 2): (+)
growth (Atopobium vaginae BAA-55; TNZ 15.6 μg/ml, DAY 3): (+)
growth (Atopobium vaginae BAA-55; TNZ 15.6 μg/ml, DAY 4): (+)
growth (Atopobium vaginae BAA-55; TNZ 15.6 μg/ml, DAY 5): (+)
growth (Atopobium vaginae BAA-55; TNZ 31.3 μg/ml, DAY 1): (−)
growth (Atopobium vaginae BAA-55; TNZ 31.3 μg/ml, DAY 2): (+)
growth (Atopobium vaginae BAA-55; TNZ 31.3 μg/ml, DAY 3): (+)
growth (Atopobium vaginae BAA-55; TNZ 31.3 μg/ml, DAY 4): (+)
growth (Atopobium vaginae BAA-55; TNZ 31.3 μg/ml, DAY 5): (+)
growth (Atopobium vaginae BAA-55; TNZ 62.5 μg/ml, DAY 1): (−)
growth (Atopobium vaginae BAA-55; TNZ 62.5 μg/ml, DAY 2): (+)
growth (Atopobium vaginae BAA-55; TNZ 62.5 μg/ml, DAY 3): (+)
growth (Atopobium vaginae BAA-55; TNZ 62.5 μg/ml, DAY 4): (+)
growth (Atopobium vaginae BAA-55; TNZ 62.5 μg/ml, DAY 5): (+)
growth (Atopobium vaginae BAA-55; TNZ 125 μg/ml, DAY 1): (−)
growth (Atopobium vaginae BAA-55; TNZ 125 μg/ml, DAY 2): (+)
growth (Atopobium vaginae BAA-55; TNZ 125 μg/ml, DAY 3): (+)
growth (Atopobium vaginae BAA-55; TNZ 125 μg/ml, DAY 4): (+)
growth (Atopobium vaginae BAA-55; TNZ 125 μg/ml, DAY 5): (+)
growth (Atopobium vaginae BAA-55; TNZ 250 μg/ml, DAY 1): (−)
growth (Atopobium vaginae BAA-55; TNZ 250 μg/ml, DAY 2): (+)
growth (Atopobium vaginae BAA-55; TNZ 250 μg/ml, DAY 3): (+)
growth (Atopobium vaginae BAA-55; TNZ 250 μg/ml, DAY 4): (+)
growth (Atopobium vaginae BAA-55; TNZ 250 μg/ml, DAY 5): (+)
growth (Atopobium vaginae BAA-55; TNZ 500 μg/ml, DAY 1): (−)
growth (Atopobium vaginae BAA-55; TNZ 500 μg/ml, DAY 2): (−)
growth (Atopobium vaginae BAA-55; TNZ 500 μg/ml, DAY 3): (+)
growth (Atopobium vaginae BAA-55; TNZ 500 μg/ml, DAY 4): (+)
growth (Atopobium vaginae BAA-55; TNZ 500 μg/ml, DAY 5): (+)
growth ([1]; TNZ 2 μg/ml, DAY 1): (+)
growth ([1]; TNZ 2 μg/ml, DAY 2): (+)
growth ([1]; TNZ 2 μg/ml, DAY 3): (+)
growth ([1]; TNZ 2 μg/ml, DAY 4): (+)
growth ([1]; TNZ 2 μg/ml, DAY 5): (+)
growth ([1]; TNZ 3.9 μg/ml, DAY 1): (+)
growth ([1]; TNZ 3.9 μg/ml, DAY 2): (+)
growth ([1]; TNZ 3.9 μg/ml, DAY 3): (+)
growth ([1]; TNZ 3.9 μg/ml, DAY 4): (+)
growth ([1]; TNZ 3.9 μg/ml, DAY 5): (+)
growth ([1]; TNZ 7.8 μg/ml, DAY 1): (+)
growth ([1]; TNZ 7.8 μg/ml, DAY 2): (+)
growth ([1]; TNZ 7.8 μg/ml, DAY 3): (+)
growth ([1]; TNZ 7.8 μg/ml, DAY 4): (+)
growth ([1]; TNZ 7.8 μg/ml, DAY 5): (+)
growth ([1]; TNZ 15.6 μg/ml, DAY 1): (+)
growth ([1]; TNZ 15.6 μg/ml, DAY 2): (+)
growth ([1]; TNZ 15.6 μg/ml, DAY 3): (+)
growth ([1]; TNZ 15.6 μg/ml, DAY 4): (+)
growth ([1]; TNZ 15.6 μg/ml, DAY 5): (+)
growth ([1]; TNZ 31.3 μg/ml, DAY 1): (+)
growth ([1]; TNZ 31.3 μg/ml, DAY 2): (+)
growth ([1]; TNZ 31.3 μg/ml, DAY 3): (+)
growth ([1]; TNZ 31.3 μg/ml, DAY 4): (+)
growth ([1]; TNZ 31.3 μg/ml, DAY 5): (+)
growth ([1]; TNZ 62.5 μg/ml, DAY 1): (+)
growth ([1]; TNZ 62.5 μg/ml, DAY 2): (+)
growth ([1]; TNZ 62.5 μg/ml, DAY 3): (+)
growth ([1]; TNZ 62.5 μg/ml, DAY 4): (+)
growth ([1]; TNZ 62.5 μg/ml, DAY 5): (+)
growth ([1]; TNZ 125 μg/ml, DAY 1): (+)
growth ([1]; TNZ 125 μg/ml, DAY 2): (+)
growth ([1]; TNZ 125 μg/ml, DAY 3): (+)
growth ([1]; TNZ 125 μg/ml, DAY 4): (+)
growth ([1]; TNZ 125 μg/ml, DAY 5): (+)
growth ([1]; TNZ 250 μg/ml, DAY 1): (+)
growth ([1]; TNZ 250 μg/ml, DAY 2): (+)
growth ([1]; TNZ 250 μg/ml, DAY 3): (+)
growth ([1]; TNZ 250 μg/ml, DAY 4): (+)
growth ([1]; TNZ 250 μg/ml, DAY 5): (+)
growth ([1]; TNZ 500 μg/ml, DAY 1): (+)
growth ([1]; TNZ 500 μg/ml, DAY 2): (+)
growth ([1]; TNZ 500 μg/ml, DAY 3): (+)
growth ([1]; TNZ 500 μg/ml, DAY 4): (+)
growth ([1]; TNZ 500 μg/ml, DAY 5): (+)
growth ([2]; TNZ 2 μg/ml, DAY 1): (+)
growth ([2]; TNZ 2 μg/ml, DAY 2): (+)
growth ([2]; TNZ 2 μg/ml, DAY 3): (+)
growth ([2]; TNZ 2 μg/ml, DAY 4): (+)
growth ([2]; TNZ 2 μg/ml, DAY 5): (+)
growth ([2]; TNZ 3.9 μg/ml, DAY 1): (+)
growth ([2]; TNZ 3.9 μg/ml, DAY 2): (+)
growth ([2]; TNZ 3.9 μg/ml, DAY 3): (+)
growth ([2]; TNZ 3.9 μg/ml, DAY 4): (+)
growth ([2]; TNZ 3.9 μg/ml, DAY 5): (+)
growth ([2]; TNZ 7.8 μg/ml, DAY 1): (+)
growth ([2]; TNZ 7.8 μg/ml, DAY 2): (+)
growth ([2]; TNZ 7.8 μg/ml, DAY 3): (+)
growth ([2]; TNZ 7.8 μg/ml, DAY 4): (+)
growth ([2]; TNZ 7.8 μg/ml, DAY 5): (+)
growth ([2]; TNZ 15.6 μg/ml, DAY 1): (−)
growth ([2]; TNZ 15.6 μg/ml, DAY 2): (−)
growth ([2]; TNZ 15.6 μg/ml, DAY 3): (−)
growth ([2]; TNZ 15.6 μg/ml, DAY 4): (+)
growth ([2]; TNZ 15.6 μg/ml, DAY 5): (+)
growth ([2]; TNZ 31.3 μg/ml, DAY 1): (−)
growth ([2]; TNZ 31.3 μg/ml, DAY 2): (−)
growth ([2]; TNZ 31.3 μg/ml, DAY 3): (−)
growth ([2]; TNZ 31.3 μg/ml, DAY 4): (+)
growth ([2]; TNZ 31.3 μg/ml, DAY 5): (+)
growth ([2]; TNZ 62.5 μg/ml, DAY 1): (−)
growth ([2]; TNZ 62.5 μg/ml, DAY 2): (−)
growth ([2]; TNZ 62.5 μg/ml, DAY 3): (−)
growth ([2]; TNZ 62.5 μg/ml, DAY 4): (−)
growth ([2]; TNZ 62.5 μg/ml, DAY 5): (−)
growth ([2]; TNZ 125 μg/ml, DAY 1): (−)
growth ([2]; TNZ 125 μg/ml, DAY 2): (−)
growth ([2]; TNZ 125 μg/ml, DAY 3): (−)
growth ([2]; TNZ 125 μg/ml, DAY 4): (−)
growth ([2]; TNZ 125 μg/ml, DAY 5): (−)
growth ([2]; TNZ 250 μg/ml, DAY 1): (−)
growth ([2]; TNZ 250 μg/ml, DAY 2): (−)
growth ([2]; TNZ 250 μg/ml, DAY 3): (−)
growth ([2]; TNZ 250 μg/ml, DAY 4): (−)
growth ([2]; TNZ 250 μg/ml, DAY 5): (−)
growth ([2]; TNZ 500 μg/ml, DAY 1): (−)
growth ([2]; TNZ 500 μg/ml, DAY 2): (−)
growth ([2]; TNZ 500 μg/ml, DAY 3): (−)
growth ([2]; TNZ 500 μg/ml, DAY 4): (−)
growth ([2]; TNZ 500 μg/ml, DAY 5): (−)
solubility in water [3]: about 0.45 percent by weight
